Measured values from US9359341B2, “Aldehyde derivative of substitute oxazolidinones” (WANBURY LTD., priority 2012, dated 2016).

Tests used:
[1] = In vitro stability in rat plasma; format: in vitro ADME; conditions: conversion to rivaroxaban seen from zero min
Description: The final concentration of the test compound in the assay is 5 micromolar. […] C. The 100 microliters of aliquot at time point was removed and diluted with ice cold acetonitrile containing IS (200.mu·L) to stop the reactions. Samples are centrifuged at 10,000 RPM for 5 minutes to precipitate proteins. Supernatants are transferred to micro centrifuge tubes and stored at −20° C. for analysis of LC/MS/MS. The percent parent remaining of the test substance is calculated as ratio of peak area at each time point to peak area ratio at zero min, multiplied by 100.
API 4000, ESI Agilent 1100 column: Gemini Nx 100 mm×4.6 mm 5.1; column temperature: 30° C.; eluent A: 0.1% formic acid in water, eluent B: acetonitrile; gradient: 0-2.5 min 95% A, 5% B; 2.5-2.6 min 5% A, 95% B; 2.6-4.2 min 95% A, 5% B; flow rate: 0.8 ml/min; ESI. Q1:464.098, Q3:144.255

plasma protein [2] = experiment: Plasma protein binding (mouse); format: in vitro ADME
Description: (§1) A compound solution (1 mM in DMSO) (5 μL), according to the invention is added to the respective plasma matrices of rat or human or mouse (1 ml).
(§2) Add 150 ul of phosphate buffer to receiving side of the dialysis well. […] Precipitate with Acetonitrile and dilute samples prior to analysis in 1.5 ml polypropylene tubes. Remove 50 μl from the sample side of dialysis well and add 50 μl of phosphate buffer +300 μl of acetonitrile containing IS. Remove 50 μl from the buffer side of the dialysis well and add 50 μl of respective matrix plasma +300 μl of ACN. Then vortexed and centrifuged for 5 min, and supernatant is taken and injected into LCMS.
(§3) Different test concentration ranging from 0.1 μM to 20 μM are made in methanol:water (90:10). Test solutions are added to the premixed matrix containing plasma:phosphate buffer (50:50). Precipitate with 300 μl of ice cold acetonitrile containing IS, vortexes and centrifuged. Supernatant is taken and injected into LCMS. Percentage of plasma protein binding was obtained via Equation(2):% Fraction unbound=(concentration on the buffer side/concentration on the sample side)*100 Table-7

[3] = Stability in simulating gastric fluid (SGF); format: physicochemical
Description: (§4) On completion of incubation period, the solution is centrifuged and supernatant is taken. To the supernatant, ice cold acetonitrile containing IS is added, vortexed and injected into LCMS/MS.
(§5) API 4000, ESI Agilent 1100 column: Gemini Nx 100 mm×4.6 mm 5.μ; column temperature: 30° C.; eluent A: 0.1% formic acid in water, eluent B: acetonitrile; gradient: 0-2.5 min 95% A, 5% B; 2.5-2.6 min 5% A, 95% B; 2.6-4.2 min 95% A, 5% B; flow rate: 0.8 ml/min; ESI. Q1:464.098, Q3:144.255
(§6) Prepared 0.1 mol of citric acid and 0.2 mol of di sodium hydrogen phosphate in water. Buffer pH 2.2, 4 and 7.8 are prepared using citric acid and disodium hydrogen phosphate by adjusting the pH with 0.1N HCl or 1N NaOHpH 7.4: 8.89 g disodium hydrogen phosphate (Solution A) add to 1 liter of water, 1.5601 g sodium di-hydrogen phosphate (solution B) are made up to 1 liter with water; Solution A (19 ml) and Solution B (81 ml) are mixed. SIF/SGF: 2.38 g of SIF original powder (biorelavant media) is dissolved in 1 L of milliQ water. The pH of the solution is adjusted for SIF (7.4) and SGF (2.2) with 0.1N HCl. The ratios of the peak areas (F) at the respective time points in relation to the peak areas at the starting time are calculated
The peak area (F) is directly correlated to the amount of test compound which is quantified by the LC MS method.
In simulating intestinal and gastric fluid, the area of the formula B compared with zero minute area to 120 min.

[4] = Stability in buffer at various pH; format: physicochemical; conditions: for Analyte Peak Area, Average: Standard average 39849828
Description: as §4, §5, §6

[5] = Intravenous and oral excretion profile in Wistar rats; format: in vivo
Description: On the day before administration of the substance, a catheter for obtaining blood is implanted in the jugular vein of the experimental animals (male Wistar rats, body weight 200-250 g) under Isoflurane. anesthesia.
Urine and faeces are taken collected from metabolic cages over the course of 144 h after administration of the substance. The administration volume is 10 ml/kg for oral and 1 ml/kg for IV in male Wistar rats. Intravenous administration is via a formulation of 2% N—N Dimethyl acetamide/ethanol 10%/PEG400 (30%)/water for IV injection (58%) and via Tween80/PEG400/sterile water in the case of oral administration. Urine and faeces collection is 0-4, 4-8, 8-24, 24-48, 48-72, 72-96, 96-120, 120-144 in the case of IV and for oral administration.
Urine and faeces was processed and IS containing Acetonitrile is added to a defined urine/faeces and precipitated. After centrifugation, compound formula (B) and, where appropriate, known cleavage products of the compound formula (B) in the supernatant are determined quantitatively using a suitable LC/MS-MS method.
The measured urine and faeces concentrations are used to calculate parameters of the test substance and of the active ingredient compound (A) liberated there from, such as AUC and Cmax.
Acetonitrile containing IS is added to the study samples, calibration samples and QCs, and the protein is precipitated using acetonitrile. Vortexed and centrifuged and the supernatant is injected by LC-MS/MS (API 4000, AB Sciex). Chromatographic separation is carried out on an Shimadzu UFLC. The injection volume is 10 μl. The separation column used is a Phenomenex Gemini NX 4.6×5μ. 100 mm, adjusted to a temperature of 30° C. A binary mobile phase gradient at 800.mu·l/min is used (A: 0.1% formic acid in water, B: acetonitrile: API 4000, ESI Agilent 1100 column: Gemini Nx 100 mm×4.6 mm 5.μ; column temperature: 30° C.; eluent A: 0.1% formic acid in water, eluent B: acetonitrile; gradient: 0-2.5 min 95% A, 5% B; 2.5-2.6 min 5% A, 95% B; 2.6-4.2 min 95% A, 5% B; flow rate: 0.8 ml/min; ESI. Q1:464.098, Q3:144.255 The temperature of the Turbo V ion source is 500° C. The following MS instrument parameters are used: curtain gas 20 units, ion spray voltage 5 kV, gas 1 50 units gas 2 50 units, CAD gas 6 units. The substances are quantified by peak heights or areas using extracted ion chromatograms of specific MRM experiments.

plasma protein [6] = experiment: Plasma protein binding (rat); format: in vitro ADME
Description: as §1, §2, §3

- Conversion: amount of test product detected [1]: min. Neglible
- Observation: amount of test product (plasma protein [2]): Not quantificable amount
- Observation: formed Rivaroxaban bound to plasma protein (plasma protein [2]): found to be moderate-High
- % Parent remaining ([3]; 30 min): 99.27%
- % Parent remaining ([3]; 60 min): 101.17%
- % Parent remaining ([3]; 120 min): 100.05%
- % Parent remaining ([3]; Zero min): 100%
- Conclusion (stability in SGF) ([3]; up to 120 min): is stable
- Analyte Peak Area, Average ([4]; buffer pH 2.1, 24 hr room temperature): 28315038 counts
- Analyte Peak Area, Average ([4]; buffer pH 4, 24 hr room temperature): 34879190 counts
- Analyte Peak Area, Average ([4]; buffer pH 7.8, 24 hr room temperature): 38907.5 counts
- stability in varying pH buffer conditions ([4]; rivaroxaban formation observed by LCMS): degraded in varying pH buffer conditions
- Mean (ng/G) Faeces ([5]; IV 1 mg/Kg, rivaroxaban in faeces, 144 h): BLQ
- Mean (ng) Urine ([5]; IV 1 mg/Kg, rivaroxaban in urine, 120 h): BLQ
- detectability of test substance in urine and faeces ([5]; after i.v. administration, at the first measurement point): no longer detectable in urine and faeces
- Observation: amount of test product (plasma protein [6]): Not quantificable amount
- Observation: formed Rivaroxaban bound to plasma protein (plasma protein [6]): found to be moderate-High
Compound: O=CN(C[C@H]1CN(c2ccc(N3CCOCC3=O)cc2)C(=O)O1)C(=O)c1ccc(Cl)s1 [Compound formula B, 5-chloro-N-formyl-N-({(5S)-2-oxo-3-[4-(3-oxomorpholin-4-yl)phenyl]-1,3-oxazolidin-5-yl}methyl)thiophene-2-carboxamide]
- amount of rivaroxaban present in faeces as compared to rivaroxaban alone ([5]; Wistar rats): lesser amount of rivaroxaban present in faeces
